# Values quoted from earlier work in patent publication US10188628B1, “Release composition for derivatives of Cannabaceae” (priority 2016, dated 2019).
# How the values were obtained:
# [1] = after oral administration
# [2] = not given; remark: listed apart in the source
smiles,measurement,setting,value
"CCCCCc1cc(O)c2c(c1)OC(C)(C)[C@@H]1CCC(C)=C[C@@H]21 [Dronabinol, Δ^9-tetrahydrocannabinol]",absorbed,after a single oral dose,90-95%
same,maximal plasma levels,oral dosing of 20 mg in a sesame oil formulation,around 10 ng/ml
same,administered dose reaching systemic circulation,"oral, first pass hepatic metabolism and high lipid solubility",10-20%
same,appetite stimulant effect may continue,[1],≥ 24 h
same,duration of action for psychoactive effects,[1],4 to 6 h
same,onset of action,[1],0.5 to 1 h
same,peak effect,[1],2 to 4 h
same,stability to storage and stress conditions,"[2]; heat, light",thermolabile and photolabile
same,biopharmaceutical classification system (BCS) class,[2]; low aqueous solubility and high permeability,Class II
